According to patent US11168073B2, “3,3-difluoroallylamines or salts thereof and pharmaceutical compositions comprising the same” (YUHAN CORPORATION, priority 2018, dated 2021):
Where a name gives a salt, the structure may show the parent alone.

What was measured:
Format in all cases: biochemical
[1] = molecular target: T1, recombinant human MAO-A (monoamine oxidase-A) (Homo sapiens, UniProt P21397); assay: Activity evaluation on recombinant human MAO-A (Amplex Red/HRP-coupled assay, 0.5 mM tyramine substrate); details: 0.5 mM tyramine, read-out: Inhibitory Activity (IC50, nM) MAO-A
T1 construct: purchased Sigma-Aldrich
T1 sequence (P21397 1-527): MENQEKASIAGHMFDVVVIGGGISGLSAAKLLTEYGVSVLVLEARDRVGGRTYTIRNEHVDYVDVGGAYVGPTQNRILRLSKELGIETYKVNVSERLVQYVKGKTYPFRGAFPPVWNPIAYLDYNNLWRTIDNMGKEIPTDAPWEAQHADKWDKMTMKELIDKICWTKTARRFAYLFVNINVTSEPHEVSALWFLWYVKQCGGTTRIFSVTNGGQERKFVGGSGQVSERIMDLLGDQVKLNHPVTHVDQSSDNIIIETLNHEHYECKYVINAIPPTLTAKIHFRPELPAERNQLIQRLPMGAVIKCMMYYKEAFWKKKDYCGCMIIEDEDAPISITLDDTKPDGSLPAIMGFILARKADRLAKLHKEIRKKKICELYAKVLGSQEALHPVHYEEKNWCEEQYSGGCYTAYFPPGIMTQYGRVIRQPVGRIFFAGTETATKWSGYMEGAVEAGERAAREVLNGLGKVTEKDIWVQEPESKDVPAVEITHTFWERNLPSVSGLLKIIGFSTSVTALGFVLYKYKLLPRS
Outline: (§1)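 8-pt 1:3 dilution series, final DMSO <1%; 30 min 37 °C preincubation w/ enzyme, 50 mM Na phosphate pH 7.4; + 200 uM Amplex Red, 1 U/mL HRP, substrate (MAO-A tyramine 0.5 mM; MAO-B benzylamine 1 mM; DAO putrescine 1 mM); fluor. rate 544/590 nm, 1-2 h; 4-param IC50.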

[2] = molecular target: T2, recombinant human DAO (diamine oxidase) (Homo sapiens, UniProt P19801); assay: Activity evaluation on recombinant human DAO (Amplex Red/HRP-coupled assay, 1 mM putrescine substrate); details: 1 mM putrescine, read-out: Inhibitory Activity (IC50, nM) DAO
T2 construct: purchased R&D systems
T2 sequence (P19801 20-751): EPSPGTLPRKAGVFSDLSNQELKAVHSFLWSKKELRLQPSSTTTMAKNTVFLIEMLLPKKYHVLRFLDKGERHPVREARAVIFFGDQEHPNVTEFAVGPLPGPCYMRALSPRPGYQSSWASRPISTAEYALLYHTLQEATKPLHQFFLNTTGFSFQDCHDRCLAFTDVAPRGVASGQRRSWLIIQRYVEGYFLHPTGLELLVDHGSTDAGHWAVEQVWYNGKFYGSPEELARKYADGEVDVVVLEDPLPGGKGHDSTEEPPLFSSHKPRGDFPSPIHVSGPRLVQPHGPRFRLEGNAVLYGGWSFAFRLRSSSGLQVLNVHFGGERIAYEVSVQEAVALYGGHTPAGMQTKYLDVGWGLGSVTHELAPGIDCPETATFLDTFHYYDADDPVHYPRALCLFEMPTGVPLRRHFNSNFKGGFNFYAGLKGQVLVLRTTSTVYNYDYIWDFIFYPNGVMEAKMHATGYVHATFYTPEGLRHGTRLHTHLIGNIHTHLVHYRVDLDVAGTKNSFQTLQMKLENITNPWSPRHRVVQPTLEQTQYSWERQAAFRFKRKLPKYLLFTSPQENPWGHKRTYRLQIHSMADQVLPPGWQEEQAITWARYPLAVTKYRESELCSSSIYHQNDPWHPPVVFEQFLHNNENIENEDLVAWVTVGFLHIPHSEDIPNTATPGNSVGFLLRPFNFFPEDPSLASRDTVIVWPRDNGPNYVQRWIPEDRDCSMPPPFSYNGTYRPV
Outline: as §1

recombinant human VAP-1 = molecular target: T3, recombinant human VAP-1 (Homo sapiens, UniProt Q16853); assay: Activity evaluation on recombinant human VAP-1 (Amplex Red/HRP-coupled hydrogen peroxide assay, benzylamine substrate); details: recombinant human VAP-1; 30 min preincubation at 37° C.; 1 mM benzylamine; read-out: Inhibitory Activity (IC50, nM) human VAP-1
T3 construct: purchased R&D systems
T3 sequence (Q16853 1-763): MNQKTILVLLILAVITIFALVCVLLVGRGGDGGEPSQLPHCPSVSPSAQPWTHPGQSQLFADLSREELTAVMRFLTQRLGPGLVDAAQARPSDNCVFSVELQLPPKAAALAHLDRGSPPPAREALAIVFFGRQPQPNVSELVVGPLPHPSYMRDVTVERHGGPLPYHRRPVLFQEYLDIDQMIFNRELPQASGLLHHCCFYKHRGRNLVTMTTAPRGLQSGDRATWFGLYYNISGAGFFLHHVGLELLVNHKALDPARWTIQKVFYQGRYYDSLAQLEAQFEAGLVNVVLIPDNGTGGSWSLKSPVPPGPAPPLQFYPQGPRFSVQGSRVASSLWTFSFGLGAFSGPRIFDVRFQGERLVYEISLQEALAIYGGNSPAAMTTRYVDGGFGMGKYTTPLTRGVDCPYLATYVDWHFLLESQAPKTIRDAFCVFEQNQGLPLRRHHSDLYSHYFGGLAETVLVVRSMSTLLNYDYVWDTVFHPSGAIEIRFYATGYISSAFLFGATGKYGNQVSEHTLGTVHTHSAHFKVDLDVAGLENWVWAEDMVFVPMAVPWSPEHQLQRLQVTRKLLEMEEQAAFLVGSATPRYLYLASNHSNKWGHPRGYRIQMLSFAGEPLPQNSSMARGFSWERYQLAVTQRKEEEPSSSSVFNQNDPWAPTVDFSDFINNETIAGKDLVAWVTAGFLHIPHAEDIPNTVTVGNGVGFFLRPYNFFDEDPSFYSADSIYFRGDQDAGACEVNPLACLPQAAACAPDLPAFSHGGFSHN
Outline: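 Hydrogen peroxide from benzylamine (1 mM) oxidation by human recombinant VAP-1 detected via HRP-coupled Amplex Red (200 uM) fluorescence, kinetic over 1–2 h. Enzyme and compound preincubated 30 min at 37 °C, pH 7.4 phosphate; 8-point dose response, signal-rate decrease versus DMSO control fitted to four-parameter logistic for IC50.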

[3] = molecular target: T4, recombinant human MAO-B (monoamine oxidase-B) (Homo sapiens, UniProt P27338); assay: Activity evaluation on recombinant human MAO-B (Amplex Red/HRP-coupled assay, 1 mM benzylamine substrate); details: 1 mM benzylamine, read-out: Inhibitory Activity (IC50, nM) MAO-B
T4 construct: purchased Sigma-Aldrich
T4 sequence (P27338 1-520): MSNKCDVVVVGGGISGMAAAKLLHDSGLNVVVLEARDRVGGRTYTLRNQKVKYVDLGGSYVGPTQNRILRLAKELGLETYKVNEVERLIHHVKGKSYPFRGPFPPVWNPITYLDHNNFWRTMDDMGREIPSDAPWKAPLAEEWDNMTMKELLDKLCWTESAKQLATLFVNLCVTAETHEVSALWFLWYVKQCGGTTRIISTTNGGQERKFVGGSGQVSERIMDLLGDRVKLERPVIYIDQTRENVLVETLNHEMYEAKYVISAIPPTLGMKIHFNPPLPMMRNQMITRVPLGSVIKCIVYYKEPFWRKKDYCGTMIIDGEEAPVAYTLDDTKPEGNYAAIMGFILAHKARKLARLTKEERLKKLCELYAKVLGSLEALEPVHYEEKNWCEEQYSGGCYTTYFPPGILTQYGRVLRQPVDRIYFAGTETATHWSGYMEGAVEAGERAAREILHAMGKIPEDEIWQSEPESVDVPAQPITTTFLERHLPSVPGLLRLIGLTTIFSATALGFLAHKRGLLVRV
Outline: as §1

| IC50 [1] | IC50 [2] | IC50 (recombinant human VAP-1) | IC50 [3] | SMILES |
| --- | --- | --- | --- | --- |
| > 100000 nM | > 100000 nM | 1.4 nM | > 10000 nM | NCC(Cn1ncn(Cc2ccc(-c3cnc(N)nc3)s2)c1=O)=C(F)F [Example 116, 2-[2-(aminomethyl)-3,3-difluoro-allyl]-4-[[5-(2-aminopyrimidin-5-yl)-2-thienyl]methyl]-1,2,4-triazol-3-one Trifluoroacetate] |
| > 100000 nM | 7100 nM | 1.1 nM | > 100000 nM | CCOc1ncc(-c2ccc(Cn3cnn(CC(CN)=C(F)F)c3=O)s2)cn1 [Example 117, 2-[2-(aminomethyl)-3,3-difluoro-allyl]-4-[[5-(2-ethoxypyrimidin-5-yl)-2-thienyl]methyl]-1,2,4-triazol-3-one Trifluoroacetate] |
| > 100000 nM | 40000 nM | 3.5 nM | > 100000 nM | COCCNc1ncc(-c2ccc(Cn3cnn(CC(CN)=C(F)F)c3=O)s2)cn1 [Example 118, 2-[2-(aminomethyl)-3,3-difluoro-allyl]-4-[[5-[2-(2-methoxyethylamino)pyrimidin-5-yl]-2-thienyl]methyl]-1,2,4-triazol-3-one Trifluoroacetate] |
| > 100000 nM | > 10000 nM | 0.5 nM | 30000 nM | CCn1cc(-c2ccc(Cn3cnn(CC(CN)=C(F)F)c3=O)s2)cn1 [Example 119, 2-[2-(aminomethyl)-3,3-difluoro-allyl]-4-[[5-(1-ethylpyrazol-4-yl)-2-thienyl]methyl]-1,2,4-triazol-3-one Trifluoroacetate] |
| > 100000 nM | > 100000 nM | 6 nM | > 100000 nM | Cn1c(-c2ccc(Cn3cnn(CC(CN)=C(F)F)c3=O)s2)cnc1Cl [Example 120, 2-[2-(aminomethyl)-3,3-difluoro-allyl]-4-[[5-(2-chloro-3-methyl-imidazol-4-yl)-2-thienyl]methyl]-1,2,4-triazol-3-one Trifluoroacetate] |
| > 100000 nM | > 10000 nM | 0.9 nM | 40000 nM | Cn1cc(-c2ccc(Cn3cnn(CC(CN)=C(F)F)c3=O)s2)ccc1=O [Example 121, 5-[5-[[1-[2-(aminomethyl)-3,3-difluoro-allyl]-5-oxo-1,2,4-triazol-4-yl]methyl]-2-thienyl]-1-methyl-pyridin-2-one Trifluoroacetate] |
| > 100000 nM | 54000 nM | 0.4 nM | 25000 nM | CCn1cc(-c2ccc(Cn3cnn(CC(CN)=C(F)F)c3=O)s2)ccc1=O [Example 122, 5-[5-[[1-[2-(aminomethyl)-3,3-difluoro-allyl]-5-oxo-1,2,4-triazol-4-yl]methyl]-2-thienyl]-1-ethyl-pyridin-2-one Trifluoroacetate] |
| > 100000 nM | 59000 nM | 0.9 nM | 56000 nM | CC(C)n1cc(-c2ccc(Cn3cnn(CC(CN)=C(F)F)c3=O)s2)ccc1=O [Example 123, 5-[5-[[1-[2-(aminomethyl)-3,3-difluoro-allyl]-5-oxo-1,2,4-triazol-4-yl]methyl]-2-thienyl]-1-isopropyl-pyridin-2-one Trifluoroacetate] |
| > 100000 nM | > 100000 nM | 2.5 nM | > 100000 nM | CC(=O)N1CC=C(c2ccc(Cn3cnn(CC(CN)=C(F)F)c3=O)s2)CC1 [Example 125, 2-[2-(aminomethyl)-3,3-difluoro-allyl]-4-[[5-(1-acetyl-3,6-dihydro-2H-pyridin-4-yl)-2-thienyl]methyl]-1,2,4-triazol-3-one Trifluoroacetate] |
| > 100000 nM | > 100000 nM | 0.5 nM | 760 nM | NCC(Cn1ncn(Cc2ccc(-c3ccc4c(c3)OCO4)s2)c1=O)=C(F)F [Example 126, 2-[2-(aminomethyl)-3,3-difluoro-allyl]-4-[[5-(1,3-benzodioxol-5-yl)-2-thienyl]methyl]-1,2,4-triazol-3-one Trifluoroacetate] |
| > 100000 nM | > 100000 nM | 0.6 nM | 1070 nM | NCC(Cn1ncn(Cc2ccc(-c3ccc4cn[nH]c4c3)s2)c1=O)=C(F)F [Example 127, 2-[2-(aminomethyl)-3,3-difluoro-allyl]-4-[[5-(1H-indazol-6-yl)-2-thienyl]methyl]-1,2,4-triazol-3-one Trifluoroacetate] |
| > 100000 nM | 97000 nM | 0.7 nM | > 100000 nM | NCC(Cn1ncn(Cc2ccc(-c3ccn4ncnc4c3)s2)c1=O)=C(F)F [Example 128, 2-[2-(aminomethyl)-3,3-difluoro-allyl]-4-[[5-([1,2,4]triazolo[1,5-a]pyridin-7-yl)-2-thienyl]methyl]-1,2,4-triazol-3-one Trifluoroacetate] |

| SMILES | IC50 [1] | IC50 [2] | IC50 (recombinant human VAP-1) | IC50 [3] |
| --- | --- | --- | --- | --- |
| CN1CC=C(c2ccc(Cn3cnn(CC(CN)=C(F)F)c3=O)s2)CC1 [Example 124, 2-[2-(aminomethyl)-3,3-difluoro-allyl]-4-[[5-(1-methyl-3,6-dihydro-2H-pyridin-4-yl)-2-thienyl]methyl]-1,2,4-triazol-3-one Trifluoroacetate] | > 100000 nM | > 100000 nM | 11 nM | > 100000 nM |
